Experimental data as given in patent US7718688B2, “Nitrobenzindoles and their use in cancer therapy” (Auckland Uniservices Limited, priority 2004, dated 2010).
Counter-ions that a name gives are not always drawn.

Legend:
[1] = test system: SKOV3: human ovarian carcinoma cell line; test: Proliferation IC50 assay, oxic/hypoxic, SKOV3; type: cell-based; conditions: for IC50: Homo sapiens, SK-OV-3, 4 h exposure under aerobic conditions; for HCR (hypoxic cytotoxicity ratio) SKOV3: IC50(aerobic)/IC10(hypoxic); for HCR SKOV3: IC50(aerobic)/IC50(hypoxic)
[2] = test system: HT29: human colon cancer cell line; test: Proliferation IC50 assay, oxic/hypoxic, HT29; type: cell-based; conditions: for IC50: Homo sapiens, HT-29, 4 h exposure under aerobic conditions; for HCR (hypoxic cytotoxicity ratio) HT29: IC50(aerobic)/IC10(hypoxic); for HCR HT29: IC50(aerobic)/IC50(hypoxic)

Row | SMILES | IC50 ([1]; Table 3) | IC50 ([2]; Table 3) | HCR (hypoxic cytotoxicity ratio) HT29 ([2]; Table 3) | melting point | further results
1 | COc1ccc(/C=C/C(=O)N2CC(CCl)c3c2cc([N+](=O)[O-])c2cc(S(N)(=O)=O)ccc32)cc1O (stereo not drawn) [Compound 27, 1-(Chloromethyl)-3-[(2E)-3-(3-hydroxy-4-methoxyphenyl)-2-propenoyl]-5-nitro-1,2-dihydro-3H-benzo[e]indole-7-sulfonamide] | 13000 nM | 2400 nM | 1.8 | 220 to 225 °C | HCR (hypoxic cytotoxicity ratio) SKOV3 ([1]; Table 3): 31
2 | CC(=O)c1ccc2c3c(cc([N+](=O)[O-])c2c1)N(C(=O)c1cc2cc(OCCN(C)C)ccc2[nH]1)CC3CCl (stereo not drawn) [Compound 12, 7-Acetyl-1-(chloromethyl)-3-{5-[2-(dimethylamino)ethoxy]indol-2-carbonyl}-5-nitro-1,2-dihydro-3H-benzo[e]indole] | 640 nM | 170 nM | 1.5 | > 350 °C | HCR (hypoxic cytotoxicity ratio) SKOV3 ([1]; Table 3): 4.0
3 | COc1cc2cc(C(=O)N3CC(CCl)c4c3cc([N+](=O)[O-])c3c([N+](=O)[O-])cccc43)[nH]c2c(OC)c1OC (stereo not drawn) [Compound 1, 1-(Chloromethyl)-5,6-dinitro-3-(5,6,7-trimethoxyindol-2-carbonyl)-1,2-dihydro-3H-benzo[e]indole] | > 20000 nM | 18000 nM | <1 | 278 to 279 °C | –
4 | COc1cc2cc(C(=O)N3CC(CCl)c4c3cc(N)c3ccc(S(C)(=O)=O)cc43)[nH]c2c(OC)c1OC (stereo not drawn) [Compound 63, 5-Amino-1-(chloromethyl)-8-(methylsulfonyl)-3-(5,6,7-trimethoxyindol-2-carbonyl)-1,2-dihydro-3H-benzo[e]indole] | – | – | – | 165 to 170 °C | IC50 ([1]; Table 4): 19 nM; HCR SKOV3 ([1]; Table 4): 1.4; IC50 ([2]; Table 4): 25 nM; HCR HT29 ([2]; Table 4): 1.0
5 | COc1ccc(/C=C/C(=O)N2CC(CCl)c3c2cc([N+](=O)[O-])c2cc(C(=O)NCCO)ccc32)cc1 (stereo not drawn) [Compound 18, 1-(Chloromethyl)-N-(2-hydroxyethyl)-3-[(E)-4-methoxycinnamoyl]-5-nitro-1,2-dihydro-3H-benzo[e]indole7-carboxamide] | 4800 nM | 4400 nM | 4.4 | 240 to 241 °C | HCR (hypoxic cytotoxicity ratio) SKOV3 ([1]; Table 3): 4.7
6 | CNS(=O)(=O)c1ccc2c3c(cc(N)c2c1)N(C(=O)c1cc2cc(OCCN(C)C)ccc2[nH]1)CC3CCl (stereo not drawn) [Compound 61, 5-Amino-1-(chloromethyl)-3-{5-[2-(dimethylamino)ethoxy]indol-2-carbonyl}-N-methyl-1,2-dihydro-3H-benzo[e]indole-7-sulfonamide] | – | – | – | 260 to 265 °C (dec.) | IC50 ([1]; Table 4): 20 nM; HCR SKOV3 ([1]; Table 4): 1.8; IC50 ([2]; Table 4): 24 nM; HCR HT29 ([2]; Table 4): 1.2
7 | CN(C)CCOc1ccc2[nH]c(C(=O)N3CC(CCl)c4c3cc(N)c3ccc(S(C)(=O)=O)cc43)cc2c1 (stereo not drawn) [Compound 64, 5-Amino-1-(chloromethyl)-3-{5-[2-(dimethylamino)ethoxy]indol-2-carbonyl}-8-(methylsulfonyl)-1,2-dihydro-3H-benzo[e]indole] | – | – | – | 235 to 240 °C | IC50 ([1]; Table 4): 18 nM; HCR SKOV3 ([1]; Table 4): 1.5; IC50 ([2]; Table 4): 29 nM; HCR HT29 ([2]; Table 4): 1.9
8 | COC(=O)c1ccc2c3c(cc(N)c2c1)N(C(=O)c1cc2cc(OCCN(C)C)ccc2[nH]1)CC3CCl (stereo not drawn) [Compound 54, Methyl 5-amino-1-(chloromethyl)-3-{5-[2-(dimethylamino)ethoxy]indol-2-carbonyl}-1,2-dihydro-3H-benzo[e]indole-7-carboxylate] | – | – | – | 225 to 230 °C | IC50 ([1]; Table 4): 7.7 nM; HCR SKOV3 ([1]; Table 4): 0.91; IC50 ([2]; Table 4): 8.6 nM; HCR HT29 ([2]; Table 4): 1.7
9 | COC(=O)c1ccc2c3c(cc([N+](=O)[O-])c2c1)N(C(=O)c1cc2cc(OC)c(OC)c(OC)c2[nH]1)CC3CCl (stereo not drawn) [Compound 13, Methyl 1-(chloromethyl)-3-(5,6,7-trimethoxyindol-2-carbonyl)-5-nitro-1,2-dihydro-3H-benzo[e]indole-7-carboxylate] | 1100 nM | 1900 nM | 3.2 | 256 to 257 °C | HCR (hypoxic cytotoxicity ratio) SKOV3 ([1]; Table 3): 4.0
10 | CN(C)CCOc1ccc2[nH]c(C(=O)N3CC(CCl)c4c3cc([N+](=O)[O-])c3cccc([N+](=O)[O-])c43)cc2c1 (stereo not drawn) (as salt: HCl) [Compound 52, 1-(Chloromethyl)-3-{5-[2-(dimethylamino)ethoxy]indol-2-carbonyl}-5,9-dinitro-1,2-dihydro-3H-benzo[e]indole] | – | – | – | 187 to 191 °C | –
11 | CNS(=O)(=O)c1ccc2c3c(cc([N+](=O)[O-])c2c1)N(C(=O)c1cc2cc(OCCN(C)C)ccc2[nH]1)CC3CCl (stereo not drawn) (as salt: HCl) [Compound 32, 1-(Chloromethyl)-3-{5-[2-(dimethylamino)ethoxy]indol-2-carbonyl}-N-methyl-5-nitro-1,2-dihydro-3H-benzo[e]indole-7-sulfonamide] | – | – | – | > 350 °C | –
12 | COc1cc2cc(C(=O)N3CC(CCl)c4c3cc([N+](=O)[O-])c3c(C(C)=O)cccc43)[nH]c2c(OC)c1OC (stereo not drawn) [Compound 3, 6-Acetyl-1-(chloromethyl)-5-nitro-3-(5,6,7-trimethoxyindol-2-carbonyl)-1,2-dihydro-3H-benzo[e]indole] | 500 nM | 680 nM | 2.0 | 180 to 183 °C | HCR (hypoxic cytotoxicity ratio) SKOV3 ([1]; Table 3): 3.4
13 | CN(C)CCOc1ccc2[nH]c(C(=O)N3CC(CCl)c4c3cc([N+](=O)[O-])c3cc(N)ccc43)cc2c1 (stereo not drawn) [Compound 10, 7-Amino-1-(chloromethyl)-3-{5-[2-(dimethylamino)ethoxy]indol-2-carbonyl}-5-nitro-1,2-dihydro-3H-benzo[e]indole] | 2500 nM | 1800 nM | 2.4 | > 300 °C | HCR (hypoxic cytotoxicity ratio) SKOV3 ([1]; Table 3): 2.0
14 | CN(C)CCOc1ccc2[nH]c(C(=O)N3CC(CCl)c4c3cc([N+](=O)[O-])c3cc(C(=O)NCCO)ccc43)cc2c1 (stereo not drawn) (as salt: HCl) [Compound 19, 1-(Chloromethyl)-3-(5-[2-(dimethylamino)ethoxy]indol-2-carbonyl)-N-(2-hydroxyethyl)-5-nitro-1,2-dihydro-3H-benzo[e]indole-7-carboxamide] | – | – | – | 231 to 233 °C (dec.) | –
15 | COc1cc2cc(C(=O)N3CC(CCl)c4c3cc([N+](=O)[O-])c3cc(S(=O)(=O)NCCOP(=O)(O)O)ccc43)[nH]c2c(OC)c1OC (stereo not drawn) | – | – | – | 228 to 232 °C | –
16 | CN(C)CCOc1ccc2[nH]c(C(=O)N3CC(CCl)c4c3cc([N+](=O)[O-])c3cc(C#N)ccc43)cc2c1 (stereo not drawn) (as salt: HCl) [Compound 22, 1-(Chloromethyl)-3-{5-[2-(dimethylamino)ethoxy]indol-2-carbonyl}-5-nitro-1,2-dihydro-3H-benzo[e]indole-7-carbonitrile] | – | – | – | > 300 °C | –
17 | CN(C)CCOc1ccc2[nH]c(C(=O)N3CC(CCl)c4c3cc([N+](=O)[O-])c3ccc(S(C)(=O)=O)cc43)cc2c1 (stereo not drawn) (as salt: HCl) [Compound 47, 1-(Chloromethyl)-3-{5-[2-(dimethylamino)ethoxy]indol-2-carbonyl}-8-(methylsulfonyl)-5-nitro-1,2-dihydro-3H-benzo[e]indole] | – | – | – | > 300 °C | –
18 | CN(C)CCOc1ccc2[nH]c(C(=O)N3CC(CCl)c4c3cc([N+](=O)[O-])c3ccc(C(N)=O)cc43)cc2c1 (stereo not drawn) (as salt: TFA) [Compound 43, 1-(Chloromethyl)-3-{5-[2-(dimethylamino)ethoxy]indol-2-carbonyl}-5-nitro-1,2-dihydro-3H-benzo[e]indole-8-carboxamide] | – | – | – | > 320 °C | –
19 | COc1cc2cc(C(=O)N3CC(CCl)c4c3cc([N+](=O)[O-])c3cc(S(=O)(=O)NCCO)ccc43)[nH]c2c(OC)c1OC (stereo not drawn) [Compound 33, 1-(Chloromethyl)-N-(2-hydroxyethyl)-5-nitro-3-(5,6,7-trimethoxyindol-2-carbonyl)-1,2-dihydro-3H-benzo[e]indole-7-sulfonamide] | 13000 nM | – | – | 257 to 258 °C | HCR (hypoxic cytotoxicity ratio) SKOV3 ([1]; Table 3): 5.8
20 | NS(=O)(=O)c1ccc2c3c(cc([N+](=O)[O-])c2c1)N(C(=O)c1cc2cc(OCCOP(=O)(O)O)ccc2[nH]1)CC3CCl (stereo not drawn) | – | – | – | 207 to 211 °C | –
21 | COC(=O)c1ccc2c3c(cc([N+](=O)[O-])c2c1)N(C(=O)c1cc2cc(OCCN(C)C)ccc2[nH]1)CC3CCl (stereo not drawn) (as salt: HCl) [Compound 14, Methyl 1-(chloromethyl)-3-{5-[2-(dimethylamino)ethoxy]indol-2-carbonyl}-5-nitro-1,2-dihydro-3H-benzo[e]indole-7-carboxylate] | – | – | – | > 300 °C | –
22 | NS(=O)(=O)c1ccc2c3c(cc([N+](=O)[O-])c2c1)N(C(=O)c1cc2cc(OCCO)ccc2[nH]1)CC3CCl (stereo not drawn) | – | – | – | 231 to 234 °C | –
23 | CN(C)CCOc1ccc2[nH]c(C(=O)N3CC(CCl)c4c3cc([N+](=O)[O-])c3cc(S(=O)(=O)N(C)C)ccc43)cc2c1 (stereo not drawn) (as salt: HCl) [Compound 38, 1-(Chloromethyl)-3-{5-[2-(dimethylamino)ethoxy]indol-2-carbonyl}-N,N-dimethyl-5-nitro-1,2-dihydro-3H-benzo[e]indole-7-sulfonamide] | – | – | – | > 350 °C | –
24 | CN(C)CCOc1ccc2[nH]c(C(=O)N3CC(CCl)c4c3cc([N+](=O)[O-])c3cc(S(N)(=O)=O)ccc43)cc2c1 (stereo not drawn) (as salt: HCl) [Compound 26, 1-(Chloromethyl)-3-{5-[2-(dimethylamino)ethoxy]indol-2-carbonyl}-5-nitro-1,2-dihydro-3H-benzo[e]indole-7-sulfonamide] | – | – | – | > 350 °C | –
25 | COc1cc2cc(C(=O)N3CC(CCl)c4c3cc([N+](=O)[O-])c3cc(C(=O)NCCO)ccc43)[nH]c2c(OC)c1OC (stereo not drawn) [Compound 17, 1-(Chloromethyl)-N-(2-hydroxyethyl)-5-nitro-3-(5,6,7-trimethoxyindol-2-carbonyl)-1,2-dihydro-3H-benzo[e]-indole-7-carboxamide] | – | 5700 nM | 1.7 | 244 to 245 °C | –
